Where “and” joins values, the source holds several entries; their conditions need not be identical. Equal entries are not always repeated. Entries after “also recorded” stand apart in the source; their conditions may differ.
Legend:
Rectal body temperature = assay type: in vivo, rat; conditions: for BODY TEMP., day of exper., 13′ post appl.: mean (X)
Protocol: Female Wistar rats (Harlan-Winkelmann, Borchen, Germany) were obtained at an age of 11-12 weeks (body weight 180-200 g). Female rats were employed because they are known to eliminate drugs less rapidly than do males, which was thought to be an advantage for drug potency studies. Rats were kept separately in plastic cages at controlled temperature (23° C.) and humidity (about 50 %) with a 12-h light cycle beginning at 7 a.m. They received standard diet (Altromin; Lage, F.R.G.), tap water and libitum. All drug injections were done in the afternoon at an ambient temperature of 23-25° C. The regular protocol started by taking the rats out of their individual cage, weighing them and joining them together on a table with six open plastic cages for better behavioral observations. Therefore animals were able to move from one cage to another and either to have social contact or to avoid it. After a short adaptation time of approximately 15 minutes, rectal body temperatures were recorded followed by drug or vehicle application.
Tests included open field observations, rotarod test and body temperature. Tests were always performed in the same manner in control and drug experiments at two different times, just before application of drug or vehicle and 13 minutes after application.
In addition to these quantitative estimations of neurological deficit, behavioral alterations observed after administration of 2-propyl-4-hexynoic acid and valproate noted in the cage and by placing the animals in an open field of 90-100 cm diameter. Muscle tone was estimated by palpation of the abdomen. The extent of deficits in behavior after administration of the compounds was determined by a rating system (Loscher et al. 1987). In short, animals were taken out of the cage, placed in an open field, observed for about 1 minute and rated separately for ataxia, abducted hindlimbs, reduced righting, flat body posture, circling, Straub tail, piloerection, hypolocomotion and hyperlocomotion (abdominal muscle tone was evaluated by palpation at the end of the period of observation). All other parameters except ataxia were scored from 0 to 3: 0-absent; 1-equivocal; 2-present; 3- intense. For ataxia (06): 1 -slight ataxia in hind-legs (tottering of the hind quarters); 2-more pronounced ataxia with dragging of hind legs; 3-further increase of ataxia and more pronounced dragging of hind legs; 4-marked ataxia, animals lose balance during forward locomotion; 5- very marked ataxia with frequent loss of balance during forward locomotion; 6-permanent loss of righting reflexes, but animal still attempts to move forward. Rectal body temperature was measured by an electronic thermometer. Body weight of the animals was recorded once daily before drug injection. Significance of differences in behavior between pre-drug and post-drug data determined in the same group of animals was calculated by the Wilcoxon signed rank test for paired replicates and for body temperature by Student's paired t-test (SigmaStat for Windows, version 1.0). Differences in body temperature were always compared only within the experimental day with the pre-drug time as control to one post-drug time.

[1] = Plasma drug levels after treatment and kindling stimulation; assay type: in vivo, rat; conditions: same dose of both drugs, immediately after treatment and kindling stimulation; for Plasma Drug Levels, Average: average of 8 rats; for Plasma Drug Levels, individual rats: each line one rat (784-793)
Source text: Since there were differences in potencies between both compounds, plasma was obtained from rats immediately after treatment and kindling stimulation during one dose experiment.

PTZ induced seizures = conditions: literature / earlier application; cited from earlier work

SMILES	BODY TEMP., day of exper., 13′ post appl. (Rectal body temperature; 50 mg/kg i.p.)	BODY TEMP., day of exper., 13′ post appl. (Rectal body temperature; 75 mg/kg i.p.)	alterations in body-temperature, in words (Rectal body temperature; 100 mg/kg i.p.)	BODY TEMP., day of exper., 13′ post appl. (Rectal body temperature; 100 mg/kg i.p.)	BODY TEMP., day of exper., 13′ post appl. (Rectal body temperature; 200 mg/kg i.p.)	BODY TEMP., day of exper., 13′ post appl. (Rectal body temperature; 200 mg/kg i.p., listed as valproate)	Plasma Drug Levels, Average [1]	Plasma Drug Levels, individual rats [1]	BODY TEMP. (° C.) day of exper. 13′ post appl. (Rectal body temperature; 200 mg/kg, 13′ post appl., mean of 8 rats, ante appl. 38.68)	body-temperatures, in words (Rectal body temperature; doses 50, 75, 100, 200 mg/kg i.p.)	antiepileptic effect in PTZ test, in words (PTZ induced seizures)
CCCC(CCC)C(=O)O [Valproate, valproic acid]	38.82 °C	38.55 °C	No alterations	38.97 °C	39.18 °C	39.2 °C	182.26 µg/mL	197.82 µg/mL and 189.87 µg/mL and 168.89 µg/mL and 173.37 µg/mL and 205.44 µg/mL and 174.06 µg/mL and 157.83 µg/mL and 190.82 µg/mL	–	–	–
CC#CCC(CCC)C(=O)O (stereo not drawn) [2-propyl-4-hexynoic acid, 2-n-propyl-4-hexynoic acid]	38.48 °C	38.49 °C	–	–	–	–	198.37 µg/mL	209.31 µg/mL and 201.34 µg/mL and 218.87 µg/mL and 154.89 µg/mL and 220.70 µg/mL and 180.10 µg/mL and 170.68 µg/mL and 225.95 µg/mL	37.94 °C	maintained within the physiological range	effective antiepileptic with a longer duration of activity and greatly reduced sedative and teratogenic effects compared to valproic acid; also recorded: improved antiepileptic compared to valproic acid
